For assay [1], the system named is combined chronic inflammatory pain and neuropathic pain. Put plainly: Combination of chronic inflammatory pain and neuropathic pain, mechanical allodynia. It counts as in vivo, mice. The settings on record: i.p. pre-treatment. The method, then: The mice used in this work were C57B1/6 strain adults (8 weeks old) and AC1 knockout mice of C57B1/6 background (Wei et al., 2002; Neuron). The animals were housed on a 12 h: 12 h light: dark cycle with food and water available ad libidum. All the protocols were in accordance with the Animal Care Committee of the University of Toronto. Both wild type and the knockouts were well groomed. Experimenters were blind to genotype. A muscle model of mechanical allodynia developed originally to study chronic pain (Sluka et al., 2001) was adapted for these experiments. Mice were briefly anaesthetized under halothane. 20μ liters carrageenan (3%, in normal saline pH 7.2) was injected intramuscularly deep into the left gastronemius muscle. Normal saline was used as a control. Injections were carried out on days 1 and 5. Behavioral nociceptive responses were measured on days 1, 2, 5 (before and after injection), 14 and 28. […] Mechanical allodynia was assessed based on the responsiveness of the hind paw to the application of von Frey filaments (Stoelting, Wood Dale, Ill.) to the point of bending. […] Ten trials were carried out each time at an interval of 5 minutes and the results were expressed as a percentage of positive responses. […] The effect of AC1 inhibition was assessed on maximal mechanical allodynia over the dorsum of the foot on the ipsilateral side of ligation on day 7. […]

Assay [2] relates to mechanical allodynia in pain model. Kind of assay: Oral administration to pain model (rat), mechanical allodynia. It counts as in vivo. The settings on record: 1 mg/kg/3 ml, as compared with the response to gabapentin.
Assay [3] has as its system neuropathic pain. Put plainly: Neuropathic pain (common peroneal nerve ligation), mechanical allodynia. Conditions: 0.1 and 1 mg/kg body weight. It counts as in vivo, mice. The method, then: The mice used in this work were C57B1/6 strain adults (8 weeks old) and AC1 knockout mice of C57B1/6 background (Wei et al., 2002; Neuron). The animals were housed on a 12 h: 12 h light: dark cycle with food and water available ad libidum. All the protocols were in accordance with the Animal Care Committee of the University of Toronto. Both wild type and the knockouts were well groomed. Experimenters were blind to genotype. Mice were placed in a plexi-glass restrainer and allowed to acclimate for 30 minutes prior to testing. Mechanical allodynia was assessed based on the responsiveness of the hind paw to the application of von Frey filaments (Stoelting, Wood Dale, Ill.) to the point of bending. Positive responses include licking, biting and sudden withdrawing of the hind paw. Experiments were carried out to characterize the threshold stimulus. […] This filament was then used to test mechanical allodynia. Ten trials were carried out each time at an interval of 5 minutes and the results were expressed as a percentage of positive responses. Positive responses included prolonged hind paw withdrawal followed by licking or scratching. Neuropathic pain was induced by ligating the common peroneal nerve as previously known in the art. […] The effect of AC1 inhibition was assessed on maximal mechanical allodynia over the dorsum of the foot on the ipsilateral side of ligation on day 7. […]

For assay [4], the system named is chronic inflammatory muscle pain. Kind of assay: Chronic inflammatory muscle pain (intramuscular carrageenan), mechanical allodynia by von Frey filament. It counts as in vivo, mice. The method, then:
The mice used in this work were C57B1/6 strain adults (8 weeks old) and AC1 knockout mice of C57B1/6 background (Wei et al., 2002; Neuron). The animals were housed on a 12 h: 12 h light: dark cycle with food and water available ad libidum. All the protocols were in accordance with the Animal Care Committee of the University of Toronto. Both wild type and the knockouts were well groomed. Experimenters were blind to genotype. A muscle model of mechanical allodynia developed originally to study chronic pain (Sluka et al., 2001) was adapted for these experiments. Mice were briefly anaesthetized under halothane. 20μ liters carrageenan (3%, in normal saline pH 7.2) was injected intramuscularly deep into the left gastronemius muscle. Normal saline was used as a control. Injections were carried out on days 1 and 5. Behavioral nociceptive responses were measured on days 1, 2, 5 (before and after injection), 14 and 28. Mice were placed in a plexi-glass restrainer and allowed to acclimate for 30 minutes prior to testing. Mechanical allodynia was assessed based on the responsiveness of the hind paw to the application of von Frey filaments (Stoelting, Wood Dale, Ill.) to the point of bending. […] Ten trials were carried out each time at an interval of 5 minutes and the results were expressed as a percentage of positive responses. […]

Assay [5] deals with acute inflammatory muscle pain. Put plainly: Formalin lick test for acute inflammatory muscle pain. It counts as in vivo, mice. The method, then:
The mice used in this work were C57B1/6 strain adults (8 weeks old) and AC1 knockout mice of C57B1/6 background (Wei et al., 2002; Neuron). The animals were housed on a 12 h: 12 h light: dark cycle with food and water available ad libidum. All the protocols were in accordance with the Animal Care Committee of the University of Toronto. Both wild type and the knockouts were well groomed. Experimenters were blind to genotype. Under brief halothane anesthesia, 10 μL of 5% formalin was injected to the left gastronemius muscle. The needle was directed from the lateral side to avoid any bony penetration and the tip was stopped at the middle of the muscle belly. The total time spent licking or biting the injected leg including the thigh and the paw was recorded and totaled every 5 minutes for a period of 2 hours. To study the effect of test compounds on behavior, each compound to be tested was injected intra-peritoneally 30 minutes before the intramuscular injection of formalin.

`Nc1ncnc2c1ncn2CCNCCCCCO` [NB001]: the “mechanical allodynia in combined chronic inflammatory and neuropathic pain” value in assay [1] (0.1 mg/kg and 1.1 mg/kg body weight) was “significantly reduced”. For the same compound, in assay [2], the “mechanical allodynia after oral administration” value is listed as “significant reduction in mechanical allodynia”.

For `Nc1ncnc2c1ncn2CCNCCCCCO` [HTS09836], the “mechanical allodynia in combined chronic inflammatory and neuropathic pain” value in assay [1] (0.1 and 1 mg/kg body weight) is “significantly reduced”. For the same compound, the “allodynia in neuropathic pain” value in assay [3] is “significantly reduced”. Moreover, in assay [4] (1 mg/kg versus 0.1 mg/kg), the “mechanical allodynia in chronic inflammatory muscle pain, comparison of dosages” value is “superior effect”. Moreover, the “mechanical allodynia in chronic inflammatory muscle pain” value in assay [4] (0.1 and 1 mg/kg body weight, von Frey filament) is “significant reduction in mechanical allodynia”. For the same compound, the “dose of peak response, licking response of acute muscle inflammatory pain” value in assay [5] (dose range 0.1 to 5 mg/kg) was found to be 1 mg/kg body weight. In assay [5] (dose range of 0.1 to 5 mg/kg bodyweight, intra-peritoneally 30 minutes before formalin, P<0.001), the “licking response of acute muscle inflammatory pain” value is recorded as “significant reduction”.

For the origin of these results see US8124599B2, “Method for treating neuronal and non-neuronal pain” (priority 2005, dated 2012).
